From ChEMBL document CHEMBL3813687, “A combined ligand- and structure-based approach for the identification of rilmenidine-derived compounds which synergize the antitumor effects of doxorubicin” (Bioorg Med Chem, 2016)
Calls of active or inactive are those of the source. The rule behind the calls is not given here.

How the values were obtained:
Nischarin [1] = target: T1, Nischarin (Rattus norvegicus, UniProt Q4G017); experiment: Displacement of [125I]PIC from Imidazoline-1 receptor in rat PC12 cell membrane by gamma counting method; format: cell membranes, PC-12
T1 sequence (Q4G017 whole entry): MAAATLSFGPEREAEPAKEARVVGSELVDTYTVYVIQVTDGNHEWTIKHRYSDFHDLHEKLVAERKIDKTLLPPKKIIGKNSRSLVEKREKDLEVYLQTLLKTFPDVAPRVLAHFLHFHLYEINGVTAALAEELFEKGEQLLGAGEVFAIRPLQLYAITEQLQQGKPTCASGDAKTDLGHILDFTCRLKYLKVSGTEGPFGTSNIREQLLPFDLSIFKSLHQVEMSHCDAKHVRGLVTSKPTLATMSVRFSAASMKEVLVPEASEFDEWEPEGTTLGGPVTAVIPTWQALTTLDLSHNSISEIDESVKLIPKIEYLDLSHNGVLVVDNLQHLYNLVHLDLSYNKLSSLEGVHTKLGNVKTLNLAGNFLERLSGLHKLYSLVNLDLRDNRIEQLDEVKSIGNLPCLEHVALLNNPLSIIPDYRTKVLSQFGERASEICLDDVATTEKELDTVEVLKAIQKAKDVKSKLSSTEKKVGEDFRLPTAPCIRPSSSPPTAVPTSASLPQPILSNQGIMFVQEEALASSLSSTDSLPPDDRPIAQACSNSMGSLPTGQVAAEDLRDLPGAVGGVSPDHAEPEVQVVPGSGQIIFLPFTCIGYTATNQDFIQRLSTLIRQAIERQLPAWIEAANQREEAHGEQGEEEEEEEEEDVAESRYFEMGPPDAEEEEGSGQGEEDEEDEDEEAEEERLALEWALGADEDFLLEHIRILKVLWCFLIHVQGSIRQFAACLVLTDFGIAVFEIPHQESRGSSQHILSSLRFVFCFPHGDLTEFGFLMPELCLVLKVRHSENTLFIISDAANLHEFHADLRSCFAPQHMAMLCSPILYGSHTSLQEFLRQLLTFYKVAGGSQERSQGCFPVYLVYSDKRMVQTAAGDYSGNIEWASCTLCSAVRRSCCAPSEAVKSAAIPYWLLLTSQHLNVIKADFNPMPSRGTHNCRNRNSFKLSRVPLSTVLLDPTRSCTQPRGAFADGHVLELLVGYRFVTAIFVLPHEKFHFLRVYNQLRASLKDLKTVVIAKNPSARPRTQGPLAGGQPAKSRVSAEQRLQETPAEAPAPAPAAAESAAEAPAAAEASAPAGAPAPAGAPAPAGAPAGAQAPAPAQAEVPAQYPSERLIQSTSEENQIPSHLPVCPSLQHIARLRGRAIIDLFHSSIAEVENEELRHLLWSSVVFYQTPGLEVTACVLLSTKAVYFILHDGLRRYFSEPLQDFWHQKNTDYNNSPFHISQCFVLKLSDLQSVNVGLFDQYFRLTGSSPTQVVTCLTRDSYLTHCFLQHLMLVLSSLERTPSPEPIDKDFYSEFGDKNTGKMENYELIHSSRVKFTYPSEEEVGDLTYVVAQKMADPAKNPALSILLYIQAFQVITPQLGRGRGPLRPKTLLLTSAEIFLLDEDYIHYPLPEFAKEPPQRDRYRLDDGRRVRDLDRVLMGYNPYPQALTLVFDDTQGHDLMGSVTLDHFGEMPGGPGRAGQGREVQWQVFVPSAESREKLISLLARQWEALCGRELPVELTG

[2] = target: T2, Alpha-2A adrenergic receptor (Homo sapiens, UniProt P08913); experiment: Intrinsic activity at recombinant human alpha2A adrenoreceptor expressed in CHOK1 cell membrane incubated for 30 mins by [35S]GTPgammaS binding assay relative to adrenaline; format: cell membranes; conditions: CHO-K1, human, 0.5 h; read-out: Intrinsic activity
T2 sequence (P08913 whole entry): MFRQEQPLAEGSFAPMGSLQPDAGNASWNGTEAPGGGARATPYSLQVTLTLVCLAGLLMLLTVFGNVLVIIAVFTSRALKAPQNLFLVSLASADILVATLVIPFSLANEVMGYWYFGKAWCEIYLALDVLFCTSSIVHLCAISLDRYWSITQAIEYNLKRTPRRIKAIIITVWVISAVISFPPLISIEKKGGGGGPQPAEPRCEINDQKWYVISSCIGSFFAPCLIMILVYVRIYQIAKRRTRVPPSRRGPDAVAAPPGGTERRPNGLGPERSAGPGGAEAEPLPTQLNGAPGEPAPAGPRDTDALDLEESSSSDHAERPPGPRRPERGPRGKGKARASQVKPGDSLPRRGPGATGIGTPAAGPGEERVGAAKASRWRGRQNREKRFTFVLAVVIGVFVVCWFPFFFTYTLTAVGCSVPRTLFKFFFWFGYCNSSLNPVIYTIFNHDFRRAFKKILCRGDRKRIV

K562 [3] = experiment: Antiproliferative activity against human K562 cells assessed as inhibition of cell survival after 48 hrs by MTT assay; format: functional, cell-based; conditions: K562, 48 h
[4] = target: T2, Alpha-2A adrenergic receptor; experiment: Displacement of [3H]RS-79948-197 from recombinant human alpha2A adrenoreceptor expressed in CHOK1 cell membrane by scintillation counting method; format: cell membranes, CHO-K1; conditions: read-out: Ki(app)
[5] = Displacement of [3H]-clonidine from Imidazoline-1 receptor in bovine chromaffin cell membranes incubated for 40 mins in presence of RX821002; set-up: species or system Bos taurus
Nischarin [6] = target: T1, Nischarin; experiment: Displacement of [125I]PIC from Imidazoline-1 receptor in rat PC12 cell membrane incubated for 30 mins by gamma counting method; format: cell membranes, PC-12
K562 [7] = experiment: Cell cycle arrest in human K562 cells assessed as accumulation at G2/M phase at 70 uM after 48 hrs by propidium iodide staining based flow cytometry (reference value: 26%); format: functional
K562 [8] = experiment: Cell cycle arrest in human K562 cells assessed as accumulation at G0/G1 phase at 70 uM after 48 hrs by propidium iodide staining based flow cytometry (reference value: 42%); format: functional
K562 [9] = experiment: Cell cycle arrest in human K562 cells assessed as accumulation at S phase at 70 uM after 48 hrs by propidium iodide staining based flow cytometry (reference value: 29%); format: functional
K562 [10] = experiment: Cell cycle arrest in human K562 cells assessed as accumulation at sub-G1 phase at 70 uM after 48 hrs by propidium iodide staining based flow cytometry (reference value: 3%); format: functional
K562 [11] = experiment: Induction of apoptosis in human K562 cells assessed as early apoptotic cells at 70 uM after 48 hrs by Annexin V-FITC/propidium iodide staining based flow cytometry (reference value: 5%); format: functional
K562 [12] = experiment: Antiproliferative activity against human K562 cells at 70 uM after 24 hrs by clonogenic assay relative to control; format: functional; conditions: K562, 24 h, read-out: GI
K562 [13] = experiment: Inhibition of colony formation in human K562 cells after 24 hrs by clonogenic assay; format: functional, cell-based
K562 [14] = experiment: Induction of apoptosis in human K562 cells assessed as late apoptotic cells at 70 uM after 48 hrs by Annexin V-FITC/propidium iodide staining based flow cytometry (reference value: 1%); format: functional
K562 [15] = experiment: Induction of apoptosis in human K562 cells assessed as necrotic cells at 70 uM after 48 hrs by Annexin V-FITC/propidium iodide staining based flow cytometry (reference value: 1%); format: functional
K562 [16] = experiment: Potentiation of doxorubicin-induced apoptosis in human K562 cells assessed as early apoptotic cells at 70 uM after 48 hrs by Annexin V-FITC/propidium iodide staining based flow cytometry (reference value: 5%); format: functional
K562 [17] = experiment: Potentiation of doxorubicin-induced apoptosis in human K562 cells assessed as late apoptotic cells at 70 uM after 48 hrs by Annexin V-FITC/propidium iodide staining based flow cytometry (reference value: 1%); format: functional
K562 [18] = experiment: Potentiation of doxorubicin-induced apoptosis in human K562 cells assessed as necrotic cells at 70 uM after 48 hrs by Annexin V-FITC/propidium iodide staining based flow cytometry (reference value: 1%); format: functional
[19] = target: Proto-oncogene tyrosine-protein kinase Src (Homo sapiens) (UniProt P12931); experiment: Inhibition of recombinant human N-terminal poly His/GST-tagged SRC expressed in baculovirus infected insect cells using KVEKIGEGTYGVVYK peptide substrate assessed as residual activity at 100 uM by [gamma32P]ATP filter binding assay relative to control
Chain of Proto-oncogene tyrosine-protein kinase Src (Homo sapiens) (P12931 2-536 limits assumed): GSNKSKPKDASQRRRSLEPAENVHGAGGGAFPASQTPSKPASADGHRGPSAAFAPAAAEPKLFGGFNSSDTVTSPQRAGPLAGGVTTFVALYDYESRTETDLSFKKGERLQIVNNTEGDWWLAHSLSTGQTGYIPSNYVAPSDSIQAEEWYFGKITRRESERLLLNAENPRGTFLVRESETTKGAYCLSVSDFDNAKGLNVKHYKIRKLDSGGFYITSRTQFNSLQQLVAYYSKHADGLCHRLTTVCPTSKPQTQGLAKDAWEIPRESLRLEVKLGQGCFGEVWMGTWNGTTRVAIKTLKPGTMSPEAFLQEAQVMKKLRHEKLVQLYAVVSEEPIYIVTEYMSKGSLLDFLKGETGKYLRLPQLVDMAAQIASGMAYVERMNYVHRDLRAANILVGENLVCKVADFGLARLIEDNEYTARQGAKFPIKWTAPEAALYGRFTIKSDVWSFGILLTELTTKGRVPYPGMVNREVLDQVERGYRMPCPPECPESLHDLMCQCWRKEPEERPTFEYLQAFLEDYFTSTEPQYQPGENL

[20] = target: Proto-oncogene tyrosine-protein kinase Src (Homo sapiens) (UniProt P12931); experiment: Inhibition of recombinant human N-terminal poly His/GST-tagged SRC expressed in baculovirus infected insect cells using KVEKIGEGTYGVVYK peptide substrate assessed as residual activity at 100 uM in presence of NP40 by [gamma32P]ATP filter binding assay relative to control
[21] = target: Tyrosine-protein kinase ABL1 (Homo sapiens) (UniProt P00519); experiment: Inhibition of recombinant human N-terminal His-tagged ABL expressed in baculovirus infected sf9 cells using abtide as substrate assessed as residual activity at 100 uM by [gamma32P]ATP filter binding assay relative to control
Chain of Tyrosine-protein kinase ABL1 (Homo sapiens) (P00519 whole entry): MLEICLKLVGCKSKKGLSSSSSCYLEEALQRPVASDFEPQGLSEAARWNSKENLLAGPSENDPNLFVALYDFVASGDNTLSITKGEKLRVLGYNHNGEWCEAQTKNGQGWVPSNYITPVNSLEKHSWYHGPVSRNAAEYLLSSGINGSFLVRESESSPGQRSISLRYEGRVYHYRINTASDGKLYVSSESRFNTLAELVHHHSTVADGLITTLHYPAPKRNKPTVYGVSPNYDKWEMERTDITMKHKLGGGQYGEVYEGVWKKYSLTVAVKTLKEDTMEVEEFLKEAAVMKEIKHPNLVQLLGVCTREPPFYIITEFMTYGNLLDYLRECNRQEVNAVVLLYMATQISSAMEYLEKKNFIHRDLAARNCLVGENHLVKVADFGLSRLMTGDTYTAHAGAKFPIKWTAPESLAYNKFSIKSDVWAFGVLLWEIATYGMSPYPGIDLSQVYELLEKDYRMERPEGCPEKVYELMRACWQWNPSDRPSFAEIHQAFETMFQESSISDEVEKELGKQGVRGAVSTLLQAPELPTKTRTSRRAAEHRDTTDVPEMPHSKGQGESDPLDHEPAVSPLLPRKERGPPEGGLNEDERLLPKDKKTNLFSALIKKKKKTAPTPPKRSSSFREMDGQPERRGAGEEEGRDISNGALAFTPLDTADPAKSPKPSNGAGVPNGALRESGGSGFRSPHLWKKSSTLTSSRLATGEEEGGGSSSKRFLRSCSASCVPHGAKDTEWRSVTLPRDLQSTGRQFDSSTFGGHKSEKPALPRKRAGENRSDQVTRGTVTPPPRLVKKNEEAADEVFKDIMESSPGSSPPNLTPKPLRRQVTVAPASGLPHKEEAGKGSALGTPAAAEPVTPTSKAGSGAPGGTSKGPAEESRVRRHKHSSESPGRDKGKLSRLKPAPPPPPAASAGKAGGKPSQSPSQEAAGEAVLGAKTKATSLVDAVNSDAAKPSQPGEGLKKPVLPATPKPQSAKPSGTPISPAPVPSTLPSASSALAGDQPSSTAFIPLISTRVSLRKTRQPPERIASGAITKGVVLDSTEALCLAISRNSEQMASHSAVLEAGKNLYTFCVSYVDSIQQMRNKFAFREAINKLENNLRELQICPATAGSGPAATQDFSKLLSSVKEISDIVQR

[22] = target: Tyrosine-protein kinase ABL1 (Homo sapiens) (UniProt P00519); experiment: Inhibition of recombinant human N-terminal His-tagged ABL expressed in baculovirus infected sf9 cells using abtide as substrate assessed as residual activity at 100 uM in presence of NP40 by [gamma32P]ATP filter binding assay relative to control
K562 [23] = experiment: Potentiation of doxorubicin-mediated cell cycle arrest in human K562 cells assessed as decrease in G2/M cell population after 48 hrs by propidium iodide staining based flow cytometry; format: functional
K562 [24] = experiment: Potentiation of doxorubicin-mediated cell cycle arrest in human K562 cells assessed as increase in sub-G1 cell population after 48 hrs by propidium iodide staining based flow cytometry; format: functional
K562 [25] = experiment: Potentiation of 0.36 uM doxorubicin-induced cytotoxicity in human K562 cells assessed as inhibition of cell survival at 25 uM after 48 hrs by MTT assay relative to control; format: functional
K562 [26] = experiment: Potentiation of 0.7 uM doxorubicin-induced cytotoxicity in human K562 cells assessed as inhibition of cell survival at 50 uM after 48 hrs by MTT assay relative to control; format: functional
K562 [27] = experiment: Potentiation of 1 uM doxorubicin-induced cytotoxicity in human K562 cells assessed as inhibition of cell survival at 70 uM after 48 hrs by MTT assay relative to control; format: functional
K562 [28] = experiment: Potentiation of 1.4 uM doxorubicin-induced cytotoxicity in human K562 cells assessed as inhibition of cell survival at 100 uM after 48 hrs by MTT assay relative to control; format: functional
K562 [29] = experiment: Potentiation of 0.36 uM doxorubicin-induced cytotoxicity in human K562 cells assessed as combination index at 25 uM after 48 hrs by MTT assay relative to control; format: functional
K562 [30] = experiment: Potentiation of 0.7 uM doxorubicin-induced cytotoxicity in human K562 cells assessed as combination index at 50 uM after 48 hrs by MTT assay relative to control; format: functional
K562 [31] = experiment: Potentiation of 1 uM doxorubicin-induced cytotoxicity in human K562 cells assessed as combination index at 70 uM after 48 hrs by MTT assay relative to control; format: functional
K562 [32] = experiment: Potentiation of 1.4 uM doxorubicin-induced cytotoxicity in human K562 cells assessed as combination index at 100 uM after 48 hrs by MTT assay relative to control; format: functional

Question: With `c1ccc2c(c1)OCC(C1=NCCN1)O2` (centres undefined) [IDAZOXAN] as the compound, how does the Ki (Nischarin [1]) read?
Answer: Its Ki is 1.26 µM.

Question: For `Cc1cccc([C@H](C)c2c[nH]cn2)c1C` [DEXMEDETOMIDINE], which Emax [2] is on record?
Answer: The Emax was 63%.

Question: Which results are given for `Cc1cc(NCCC(C)C)cc(=O)n1Cc1ccccc1`?
Answer: IC50 (K562 [3]): > 300 µM; Ki [4]: 110 µM; Emax [2]: -2%

Question: Which results are given for `Cc1cc(NCc2ccc(C(F)(F)F)cc2)cc(=O)n1CC(C)C`?
Answer: IC50 (K562 [3]): 222 µM; Ki [4]: 58 µM; Emax [2]: -6%

Question: For `CCCCCNc1cc(C)n(Cc2ccccc2)c(=O)c1`, which IC50 (K562 [3]) is on record?
Answer: Its IC50 is 140 µM.

Question: And the Ki [4]?
Answer: The Ki was 110 µM.

Question: And the Emax [2]?
Answer: Its Emax is -8%.

Question: Which pKi [5] does the source give for `CC1CCN=C1NC(C1CC1)C1CC1` (centres undefined) here?
Answer: Its pKi is 4.

Question: Which Ki (Nischarin [1]) does the source give for `CC(CC1=NCCN1)c1ccccc1` (centres undefined) here?
Answer: Its Ki is 7.24 µM.

Question: For `CC1CCC(=Nc2ccc(I)cc2Cl)N1` (centres undefined), which Ki (Nischarin [6]) is on record?
Answer: The Ki was 0.000178 µM.

Question: With `CCCCCn1c(C)cc(NCc2ccccc2)cc1=O` as the compound, how does the IC50 (K562 [3]) read?
Answer: Its IC50 is > 300 µM.

Question: What about the Ki [4] of the same compound?
Answer: Its Ki is 41 µM.

Question: And the Emax [2]?
Answer: The Emax was -12%.

Question: Which results are given for `CN1CCCCC1CCn1c2ccccc2c2ccccc21` (centres undefined)?
Answer: Activity (K562 [7]): 10%; Activity (K562 [8]): 30%; Activity (K562 [9]): 16%; Activity (K562 [10]): 44%; Activity (K562 [11]): 40%; inhibition of growth at 70 µM (K562 [12]): 88%; inhibition (K562 [13]): Dose-dependent effect; IC50 (K562 [3]): 70 µM; Ki [4]: 1.2 µM; Emax [2]: -3%; Activity (K562 [14]): 13%; Activity (K562 [15]): 9%; Activity (K562 [16]): 64%; Activity (K562 [17]): 2%; Activity (K562 [18]): 1%; Activity [19]: 100%; Activity [20]: 96%; Activity [21]: 94%; Activity [22]: 100%; Activity (K562 [23]): Active; Activity (K562 [24]): Active; inhibition (INH) (K562 [25]): 45.75%; inhibition (INH) (K562 [26]): 68.62%; inhibition (INH) (K562 [27]): 72.21%; inhibition (INH) (K562 [28]): 78.21%; Ratio (K562 [29]): 0.877; Ratio (K562 [30]): 0.511; Ratio (K562 [31]): 0.617; Ratio (K562 [32]): 0.688

Question: With `Clc1cc(I)cc(Cl)c1N=C1NCCN1` [PI-CLONIDINE] as the compound, how does the Ki (Nischarin [6]) read?
Answer: Its Ki is 0.000794 µM.

Question: For `Clc1cccc(Cl)c1N=C1NCCN1` [CLONIDINE], which Ki (Nischarin [6]) is on record?
Answer: The Ki was 0.126 µM.

Question: What does the source list for `Cc1cc(NCc2ccccc2)cc(=O)n1CCC(C)C`?
Answer: IC50 (K562 [3]): > 300 µM; Ki [4]: 27 µM; Emax [2]: -10%

Question: With `c1ccc([C@H]2C[C@@H]2C2=NCCN2)cc1` as the compound, how does the Ki (Nischarin [1]) read?
Answer: Its Ki is 0.347 µM.

Question: What does the source list for `CCCCCn1c(C)cc(NCc2ccc(Cl)cc2)cc1=O`?
Answer: IC50 (K562 [3]): > 300 µM; Ki [4]: 80 µM; Emax [2]: 0%

Question: For `CCCCCNc1cc(C)n(CCCCC)c(=O)c1`, which IC50 (K562 [3]) is on record?
Answer: The IC50 was 115 µM.

Question: And the Ki [4]?
Answer: The Ki was 62 µM.

Question: What about the Emax [2] of the same compound?
Answer: Its Emax is -18%.

Question: Which IC50 (K562 [3]) does the source give for `CN1CCCCC1CCn1cnc2ccccc21` (centres undefined) here?
Answer: Its IC50 is > 300 µM.

Question: And the Ki [4]?
Answer: The Ki was 11 µM.

Question: What about the Emax [2] of the same compound?
Answer: The Emax was -6%.

Question: For `Cc1cc(NCCC(C)C)cc(=O)n1CCC(C)C`, which IC50 (K562 [3]) is on record?
Answer: The IC50 was 128 µM.

Question: And the Ki [4]?
Answer: The Ki was 52 µM.

Question: What about the Emax [2] of the same compound?
Answer: Its Emax is -17%.
